We go through seven compounds from patent US20190195897A1, “GLYCOSYLATED METABOLITES” (UNIVERSITEIT LEIDEN, priority 2015, published 2019).

For one assay, the system named is COS7 cells. In words: GlcChol in cultured COS7 cells incubated with inhibitors of GBA2 and GBA. The following applies: for increased cellular GlcChol level in cells with overexpressed GCS: COS7 cells with overexpressed GCS, 2 days with inhibitor. It counts as cell-based. Here is the method: FIG. 4A: GlcChol (nmol/g protein) in COS cells without overexpression of enzymes (control), overexpressed GBA2, GCS and both (GBA2+GCS). Cells were incubated for 2 days with indicated inhibitors of GBA2 (AMP-DNM) and GBA (CBE).
The GlcChol content of cultured COS7 cells and factors influencing this was determined. First the impact of overexpressed GBA2 and GCS was studied.
COS-7 cells were cultured in Iscove's modified Dulbecco's medium (Life Technologies, Carlsbad, Calif., USA) supplemented with 5% fetal bovine serum (FBS; Bodinco, Alkmaar, The Netherlands) and in the presence of penicillin/streptomycin Liffe Technologies, Carlsbad, Calif., USA under 5% CO2 at 37° C. […] After 72 h, the medium was removed, cells were washed trice with ice-cold PBS and harvested by scraping in 25 mM potassium-phosphate buffer, pH 6.5.
COS-7 cells overexpressing GBA2 and/or GCS were homogenized by sonication on ice. Prior to extraction, 2 pmol of ^13C-labelled GlcChol in methanol (used as an internal standard) was added to 180 μL of homogenate. Next, lipids were extracted according to the method of Bligh and Dyer by addition of methanol, chloroform and water (1:1:0.9, v/v/v) and the lower phase was taken to dryness under a stream of nitrogen. Isolated Is lipids were purified by water/butanol extraction (1:1, v/v) and 8-GlcChol was analyzed by LC-MS as described before.

A further assay deals with type 1 GD mice. In words: Treatment of mice with induced Gaucher disease with GCS inhibitor; plasma GlcCer and GlcChol. It counts as in vivo. The conditions noted are these: treated with GCS inhibitor. The source says:
FIG. 2E: Plasma GlcChol (nM) in normal, type 1 GD mice untreated and treated with GENZ 112638.
As shown in FIG. 2A and FIG. 2B, the GlcChol concentration was markedly lower in tissues of GBA2-deficient animals, especially in thymus. In contrast, in the GBA-deficient LIMP-2 KO mice no reduction in GlcChol, but rather a small increase in levels was observed (FIG. 2A, 2B). An increase in GlcChol was also observed in liver of mice with an induced GBA deficiency in the white blood cell lineage (FIG. 2C). Efficient correction of GBA deficiency by gene therapy led to a concomitant reduction of GlcChol (FIG. 2C).
The following mice were used for investigation: GD1 mice in which GBA-deficiency was induced (31, 32); mice with spontaneous Niemann Pick Type C (33) and Npc1−/− mice (34); LIMP2−/− mice (35), and GBA2 −/− mice (22). Animals were sacrificed and tissue were immediately frozen and stored at −80° C.
For quantitative analysis of GlcChol in samples of plasma, we developed a LC-MS/MS method using the MRM mode of the transitions mentioned above. Firstly, GlcChol was extracted from plasma from a healthy individual according the method of Bligh and Dyer (28) with a few modifications. […]

For another assay, the system named is RAW 267 cells. The assay is described as follows: GlcChol in RAW 267 cells exposed to U18666A. The assay is classed as cell-based. The following applies: for increase of GlcChol in U18666A exposed cells: RAW 267 cells with U18666A, added agent present. Here is the method: FIG. 5C: GlcChol (pmol/mg protein) in RAW 267 cells incubated with indicated concentration U18666A for 1 day in absence and presence of conduri.tol B-epoxide (CBE) inhibiting GBA.
FIG. 5D: GlcChol (pmol/mg protein) in RAW 267 cells incubated with 10 uM U18666A for 1 day and in subsequent absence and presence of 1 mM β-methylcyclodextrin (β-mCD) reducing intralysosomal cholesterol.

The test system of a further assay is type 1 GD patients. In words: Plasma GlcChol in treated type 1 GD patients. The assay is classed as in vivo, human. The following applies: plasma specimens of type 1 GD patients. The protocol:
FIG. 6C: Reduction in plasma GlcChol following Eliglustat treatment.
GlcChol levels in plasma of untreated symptomatic type 1 GD patients was determined as well as in NPC patients, carriers and healthy controls. […] The abnormalities are more pronounced when plasma GlcChol is related to Chol (FIG. 6B).
For quantitative analysis of GlcChol in samples of plasma, we developed a LC-MS/MS method using the MRM mode of the transitions mentioned above. Firstly, GlcChol was extracted from plasma from a healthy individual according the method of Bligh and Dyer (28) with a few modifications. 20 μL of plasma was pipetted in an Eppendorf tube (2 mL) and 20 μL of an internal standard solution, containing 0.1 pmol/μL of ^13C6-β-GlcChol in methanol, was added, followed by addition of 280 μL methanol and 150 μL of chloroform. After brief mixing, the sample was left at room temperature for 30 min, mixed occasionally and centrifuged for 10 min at 15700×g to spin down precipitated protein. The supernatant was transferred to an Eppendorf tube and 150 μL chloroform and 250 μL water were added to induce separation of phases. After centrifugation (5 min at 15700×g) the lower, hydrophobic phase was transferred to a clean Eppendorf tube and the upper phase was washed. by addition of 300 μL of chloroform. Lower phases were pooled and taken to dryness at 35° C. under a nitrogen stream. […]

Take `OC[C@@H]1[C@@H](O)[C@H](O)[C@@H](O)CN1CCCCCOCC12CC3CC(CC(C3)C1)C2` [AMP-DNM, N-(5-adamantane-1-yl-methoxy-pentyl)-deoxynojirimycin]: the “increased cellular GlcChol level in cells with overexpressed GCS” value in the assay with COS7 cells was “the elevation in GlcChol was prevented”. Further, the “cellular GlcChol” value in the assay on COS7 cells (COS7 cells, low nanomolar inhibitor, 2 days) was “reduced cellular GlcChol”. Turning to `CCCCCCCC(=O)N[C@H](CN1CCCC1)[C@H](O)c1ccc2c(c1)OCCO2` [GENZ 112638], in the assay on type 1 GD mice, the “elevated plasma GlcChol” value was “minor, not statistically significant, reduction” and the “plasma GlcCer” value was “partial reduction”.

Turning to “β-methylcyclodextrin [B-methyl-cyclodextrin]”, the “increase of GlcChol in U18666A exposed cells” value in the assay with RAW 267 cells is “prevented”. For `O[C@H]1[C@H](O)[C@@H](O)[C@@H]2O[C@@H]2[C@@H]1O` (racemic) [CBE, Conduritol B epoxide], the “increase of GlcChol in U18666A exposed cells” value in the assay on RAW 267 cells is “prevented completely”. Besides, in the assay on COS7 cells, the “increased cellular GlcChol level in cells with overexpressed GCS” value is recorded as “did hardly diminish”. For the compound `CCCCCCCC(=O)N[C@H](CN1CCCC1)[C@H](O)c1ccc2c(c1)OCCO2` [Eliglustat], the “plasma GlcChol following treatment” value in the assay with type 1 GD patients is given as “prominent reduction”. `CCN(CC)CCO[C@H]1CC[C@@]2(C)C(=CC[C@@H]3[C@@H]2CC[C@]2(C)C(=O)CC[C@@H]32)C1` [U18666A]: in the assay with RAW 267 cells (RAW 267 cells, 1 day), the “GlcChol in cells on induction of lysosomal cholesterol accumulation” value was “rapid increase”. Turning to `CCCCN1C[C@H](O)[C@@H](O)[C@H](O)[C@H]1CO` [Zavesca], the “plasma GlcChol following treatment” value in the assay on type 1 GD patients is given as “not”.
